In patent publication US10815210B2, “Benzocyclobutane derivatives useful as dual SGLT1 / SGLT2 modulators” (Janssen Pharmaceutica NV, priority 2016, dated 2020):

Experiments:
[1] = target: T1, human SGLT2 (Homo sapiens, UniProt P31639); test: SGLT2 assay: Na-dependent 14C-AMG uptake in CHO-K1 cells stably expressing human SGLT2; assay type: cell-based; conditions: for IC50: 500 μM AMG, 2 hours at 37° C.
T1 construct: expressed in transfected cells; host or cells: CHO-K1
T1 sequence (P31639 1-672): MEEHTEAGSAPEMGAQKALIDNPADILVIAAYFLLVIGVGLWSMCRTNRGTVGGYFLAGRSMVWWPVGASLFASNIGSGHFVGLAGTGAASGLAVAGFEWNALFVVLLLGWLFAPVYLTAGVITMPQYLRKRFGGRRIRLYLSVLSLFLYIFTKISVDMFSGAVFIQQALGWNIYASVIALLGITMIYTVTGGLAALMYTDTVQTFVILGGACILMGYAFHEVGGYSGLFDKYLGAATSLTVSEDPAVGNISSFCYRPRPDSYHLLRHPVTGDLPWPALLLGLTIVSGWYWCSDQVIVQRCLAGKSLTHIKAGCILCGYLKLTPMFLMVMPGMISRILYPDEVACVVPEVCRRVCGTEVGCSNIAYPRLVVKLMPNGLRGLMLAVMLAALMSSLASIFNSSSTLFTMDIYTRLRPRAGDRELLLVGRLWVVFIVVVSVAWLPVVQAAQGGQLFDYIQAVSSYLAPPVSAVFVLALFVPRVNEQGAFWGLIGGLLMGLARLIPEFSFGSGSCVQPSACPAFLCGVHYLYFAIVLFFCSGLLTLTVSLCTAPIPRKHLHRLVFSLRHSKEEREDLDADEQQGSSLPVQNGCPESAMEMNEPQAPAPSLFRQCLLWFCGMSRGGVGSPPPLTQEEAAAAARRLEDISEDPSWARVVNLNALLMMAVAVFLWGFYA
In short: (§1)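 CHO-K1 cells stably expressing human SGLT1 or SGLT2, pretreated 24 h with 10 mM Na-butyrate, were exposed 10 min to compound (0.001-10 μM) in Na-containing HEPES/Tris buffer pH 7.4. Uptake of ^14C-AMG (500 μM final) ran 2 h at 37° C, then Na-dependent uptake was counted by scintillation.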

[2] = target: T2, human SGLT1 (Homo sapiens, UniProt P13866); test: SGLT1 assay: Na-dependent 14C-AMG uptake in CHO-K1 cells stably expressing human SGLT1; assay type: cell-based; conditions: for IC50: 500 μM AMG, 2 hours at 37° C.
T2 construct: expressed in transfected cells; host or cells: CHO-K1
T2 sequence (P13866 1-664): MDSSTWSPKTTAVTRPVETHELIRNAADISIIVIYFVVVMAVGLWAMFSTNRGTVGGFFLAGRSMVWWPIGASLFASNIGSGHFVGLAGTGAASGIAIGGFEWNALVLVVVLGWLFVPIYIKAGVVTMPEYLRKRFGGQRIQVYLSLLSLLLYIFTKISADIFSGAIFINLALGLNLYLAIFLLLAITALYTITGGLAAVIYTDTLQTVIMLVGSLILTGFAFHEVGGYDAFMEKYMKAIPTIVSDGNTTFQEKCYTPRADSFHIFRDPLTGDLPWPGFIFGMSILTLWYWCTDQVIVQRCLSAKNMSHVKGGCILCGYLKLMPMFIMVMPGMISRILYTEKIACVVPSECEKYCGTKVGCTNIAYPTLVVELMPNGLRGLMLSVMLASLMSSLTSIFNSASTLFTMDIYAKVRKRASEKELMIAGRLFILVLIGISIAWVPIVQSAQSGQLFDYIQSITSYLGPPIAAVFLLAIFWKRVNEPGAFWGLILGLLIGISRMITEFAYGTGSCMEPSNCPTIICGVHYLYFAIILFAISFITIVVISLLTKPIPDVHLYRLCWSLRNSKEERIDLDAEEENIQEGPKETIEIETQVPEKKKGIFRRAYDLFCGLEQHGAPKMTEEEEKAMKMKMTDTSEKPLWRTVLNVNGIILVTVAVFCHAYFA
In short: as §1

Row | Structure (SMILES) | IC50 [1] [nM] | IC50 [2] [nM] | inhibition at 0.03 µM ([1]; at 0.03 μM) [%] | inhibition at 0.3 µM ([2]; at 0.3 μM) [%]
1 | [2H]C([2H])(c1ccc2c(c1)CC2)c1cc([C@@H]2O[C@H](CO)[C@@H](O)[C@H](O)[C@H]2O)ccc1OC (single isomer, unassigned) [Compound 57] | 6 | 44 |  | 
2 | CCOc1cc(OC)c(Cc2ccc3c(c2)CC3)cc1[C@@H]1O[C@H](CO)[C@@H](F)[C@H](O)[C@H]1O [Compound 137] | 1 | 20 |  | 
3 | CCc1cc(O)c([C@@H]2O[C@H](CO)[C@@H](F)[C@H](O)[C@H]2O)cc1Cc1ccc2c(c1)CC2 [Compound 127] | 2 | 1 |  | 
4 | COc1cc(O)c([C@@H]2O[C@H](CO)[C@@H](F)[C@H](O)[C@H]2O)cc1Cc1ccc2c(c1)CC2 [Compound 135] | 3 | 3 |  | 
5 | OC[C@H]1O[C@@H](c2ccc(Cl)c(Cc3ccc4c(c3)CC4)c2)[C@H](O)[C@@H](O)[C@@H]1F [Compound 134] | 2 | 36 |  | 
6 | N#Cc1cc(O)c([C@@H]2O[C@H](CO)[C@@H](O)[C@H](O)[C@H]2O)cc1Cc1ccc2c(c1)CC2 [Compound 17, 2-((1,2-dihydrocyclobutabenzen-4-yl)methyl)-5-hydroxy-4-((2S,3R,4R,5S,6R)-3,4,5-trihydroxy-6-(hydroxymethyl)-tetrahydro-2H-pyran-2-yl)benzonitrile] | 1 | 192 |  | 
7 | CCc1cc(O)c([C@@H]2O[C@H](CO)[C@@H](O)[C@H](O)[C@H]2O)cc1Cc1ccc2c(c1)CC2 [Compound 12] | 2 | 3 |  | 
8 | OC[C@H]1O[C@@H](c2ccc(Cl)c(C(F)(F)c3ccc4c(c3)CC4)c2)[C@H](O)[C@@H](O)[C@@H]1O [Compound 140] | 2 | 50 |  | 
9 | COc1cc(OC)c([C@@H]2O[C@H](CO)[C@@H](F)[C@H](O)[C@H]2O)cc1Cc1ccc2c(c1)CC2 [Compound 136] | 1 | 9 |  | 
10 | COc1cc(OC)c([C@@H]2O[C@H](CO)[C@@H](O)[C@H](O)[C@H]2O)cc1Cc1ccc2c(c1)CC2 [Compound 11, (2S,3R,4R,5S,6R)-2-(5-((1,2-dihydrocyclobutabenzen-4-yl)methyl)-2,4-dimethoxyphenyl)-6-(hydroxymethyl)-tetrahydro-2H-pyran-3,4,5-triol] | 1 | 58 |  | 
11 | [2H]C([2H])(c1ccc2c(c1)CC2)c1cc([C@@H]2O[C@H](CO)[C@@H](O)[C@H](O)[C@H]2O)c(OC)cc1Cl [Compound 56, (2S,3R,4R,5S,6R)-2-(5-[bicyclo[4.2.0]octa-(6),2,4-trien-3-yl(dideuterium)methyl]-4-chloro-2-methoxyphenyl)-6-(hydroxymethyl)oxane-3,4,5-triol] | 2 | 93 |  | 
12 | COc1cc(Cl)c(Cc2ccc3c(c2)CC3)cc1[C@@H]1O[C@H](CO)[C@@H](F)[C@H](O)[C@H]1O [Compound 133] | 1 | 15 |  | 
13 | OC[C@H]1O[C@@H](c2cccc(Cc3ccc4c(c3)CC4)c2)[C@H](O)[C@@H](O)[C@@H]1O [Compound 24, (2S,3R,4R,5S,6R)-2-(3-((1,2-dihydrocyclobutabenzen-4-yl)methyl)phenyl)-6-(hydroxymethyl)-tetrahydro-2H-pyran-3,4,5-triol] |  |  | 23 | 5
14 | COc1cc(O)c([C@@H]2O[C@H](CO)C(F)(F)[C@H](O)[C@H]2O)cc1Cc1ccc2c(c1)CC2 [Compound 107] | 1 | 10 |  | 

Other lines, results leading:

Row | IC50 [1] [nM] | IC50 [2] [nM] | inhibition at 0.03 µM ([1]; at 0.03 μM) [%] | inhibition at 0.3 µM ([2]; at 0.3 μM) [%] | Structure (SMILES)
15 | 2 | 68 |  |  | [2H]C1([2H])Cc2cc(Cc3cc([C@@H]4O[C@H](CO)[C@@H](O)[C@H](O)[C@H]4O)c(OC)cc3C)ccc21 [Compound 86, (2S,3R,4R,5S,6R)-2-(5-((1,1-dideuterium-1,2-dihydrocyclobutabenzen-4-yl)methyl)-2-methoxy-4-methylphenyl)-6-(hydroxymethyl)-tetrahydro-2H-pyran-3,4,5-triol]
16 | 2 | 41 |  |  | [2H]C1([2H])Cc2ccc(Cc3cc([C@@H]4O[C@H](CO)[C@@H](O)[C@H](O)[C@H]4O)c(OC)cc3OC)cc21 (single isomer, unassigned) [Compound 68]
17 | 1 | 4 |  |  | Cc1cc(O)c([C@@H]2O[C@H](CO)[C@@H](O)[C@H](O)[C@H]2O)cc1Cc1ccc2c(c1)CC2 [Compound 6, (2S,3R,4R,5S,6R)-2-(5-((1,2-dihydrocyclobutabenzen-4-yl)methyl)-2-hydroxy-4-methylphenyl)-6-(hydroxymethyl)-tetrahydro-2H-pyran-3,4,5-triol]
18 | 1 | 4 |  |  | OC[C@H]1O[C@@H](c2cc(Cc3ccc4c(c3)CC4)c(Cl)cc2O)[C@H](O)[C@@H](O)[C@@H]1F [Compound 129]
19 | 2 | 46 |  |  | [2H]C1([2H])Cc2cc(Cc3cc([C@@H]4O[C@H](CO)[C@@H](O)[C@H](O)[C@H]4O)ccc3C)ccc21 [Compound 85, (2S,3R,4R,5S,6R)-(3-((1,1-dideuterium-1,2-dihydrocyclobutabenzen-4-yl)methyl)-4-methylphenyl)-6-(hydroxymethyl)-tetrahydro-2H-pyran-3,4,5-triol]
20 | 3 | 206 |  |  | OC[C@H]1O[C@@H](c2cc(Cc3ccc4c(c3)CC4)c(Cl)cc2F)[C@H](O)[C@@H](O)[C@@H]1O [Compound 30, (2S,3R,4R,5S,6R)-2-(4-chloro-5-((1,2-dihydrocyclobutabenzen-4-yl)methyl)-2-fluorophenyl)-6-(hydroxymethyl)-tetrahydro-2H-pyran-3,4,5-triol]
21 | 3 | 32 |  |  | [2H]C1([2H])Cc2ccc(Cc3cc([C@@H]4O[C@H](CO)[C@@H](O)[C@H](O)[C@H]4O)ccc3CC)cc21 [Compound 66, (2S,3R,4R,5S,6R)-2-(3-((2,2-dideuterium-1,2-dihydrocyclobutabenzen-4-yl)methyl)-4-ethylphenyl)-6-(hydroxymethyl)-tetrahydro-2H-pyran-3,4,5-triol]
22 | 2 | 50 |  |  | OC[C@H]1O[C@@H](c2cc(Cc3ccc4c(c3)CC4)c(Cl)cc2OC2CC2)[C@H](O)[C@@H](O)[C@@H]1O [Compound 117]
23 | 3 | 10 |  |  | CCc1cc(F)c([C@@H]2O[C@H](CO)[C@@H](O)[C@H](O)[C@H]2O)cc1Cc1ccc2c(c1)CC2 [Compound 32, (2S,3R,4R,5S,6R)-2-(5-((1,2-dihydrocyclobutabenzen-4-yl)methyl)-4-ethyl-2-fluorophenyl)-6-(hydroxymethyl)-tetrahydro-2H-pyran-3,4,5-triol]
24 | 3 | 71 |  |  | [2H]C1([2H])Cc2ccc(Cc3cc([C@@H]4O[C@H](CO)[C@@H](O)[C@H](O)[C@H]4O)c(F)cc3Cl)cc21 [Compound 71, (2S,3R,4R,5S,6R)-2-{5-[(8,8-dideuterium)bicyclo[4.2.0]octa-1(6),2,4-trien-3-ylmethyl]-4-chloro-2-fluorophenyl}-6-(hydroxymethyl)oxane-3,4,5-triol]
25 | 1 | 62 |  |  | [2H]C1([2H])Cc2cc(Cc3cc([C@@H]4O[C@H](CO)[C@@H](O)[C@H](O)[C@H]4O)ccc3Cl)ccc21 (single isomer, unassigned) [Compound 81]
26 | 3 | 16 |  |  | [2H]C1([2H])Cc2ccc(Cc3cc([C@@H]4O[C@H](CO)[C@@H](O)[C@H](O)[C@H]4O)c(F)cc3CC)cc21 [Compound 73, (2S,3R,4R,5S,6R)-2-(5-((2,2-dideuterium-1,2-dihydrocyclobutabenzen-4-yl)methyl)-4-ethyl-2-fluorophenyl)-6-(hydroxymethyl)-tetrahydro-2H-pyran-3,4,5-triol]
